In US8716228B2, “GPR54 agonists or antagonists for treatment of diseases presenting behavioral abnormalities” (YEDA Research and Development Co. Ltd., priority 2009, dated 2014):

What was measured:
[1] = test system: naive mice; test: Tail suspension test; format: in vivo, mouse; details: 100 μl of 100 μM, vs PBS
Description: Tail suspension test. The tail suspension apparatus was made of horizontal metal rod supported by a stand. Each mouse was suspended from its tail using adhesive tape, suspending each mouse individually. The immobility time was measured during a 6 min observation period, latency to first immobility and total immobility was calculated (FIG. 10A).
The results we presented above using the PPI paradigm only relate to the psychotic symptoms of schizophrenia. However, schizophrenia patients suffer from cognitive and negative symptoms as well (i.e depression). […] To address whether Kp-10 has an antidepressant potency we studied its effect in the tail suspension test, an established method for screening antidepressant-like activity in mice (Steru et al., 1985; Cryan et al., 2005). Naïve mice were treated with Kp-10 (SEQ ID NO:3; 100 μl of 100 μM) or PBS and were subjected to the tail suspension test, in which the mouse is suspended by the tail from a lever, and the movements of the animal are recorded (FIG. 10A). The latency to the first immobility was longer and the duration of the total immobility was shorter in the Kp-10 treated mice compared to PBS treated mice (FIGS. 10B-10C).

[2] = test system: C57B1/6 mice; test: PPI in MK-801 pharmacological model of schizophrenia; format: in vivo, mouse; details: Kp-10 i.p. 100 μl of 100 μM 15 min prior to MK-801 (0.1 mg/kg)
Description: Prepulse Inhibition (PPI). PPI testing was performed within startle chambers purchased from Med Associates Inc (Med Associates, St. Albans, Vt., USA). PPI was analyzed as described previously (Kipnis et al., 2004). Briefly, during a period of acclimation, a 65-dB background noise was applied for 5-min, and continued throughout the test session. All sessions for testing of PPI consisted of startle trials (pulse alone, 40-ms, 120-dB), prepulse trials (prepulse 20-ms, 69, 73, 78, or 81 dB followed by a (100-ms delay) pulse), and no-stimulus trials. All sessions were presented in pseudo-random order. The average time between trials was 15 s (range 12-30 s). PPI was calculated as: % PPI=100−{[(startle response for prepulse+pulse)/(startle response for pulse-alone)]×100}. In all the experiments, there were no significant differences between groups in trials of startle reactivity to pulse alone, and in no-stimulation trials. Data from no-stimulation trials are not included in the results because the values obtained were negligible relative to values from trials containing startle stimuli. Reduced PPI is associated with schizophrenia-related behavior. […]
To further establish the antipsychotic effect of Kp-10, we evaluated its ability to overcome psychotic symptoms induced by the psycho-mimetic agent, MK-801 (N-methyl-D-aspartate (NMDA) antagonist), which induces neurotransmitter imbalance. […]

[3] = test system: SCID mice; test: Radial arm water maze (RAWM); format: in vivo, mouse; details: i.p. 100 μl containing 100 μM at beginning of each of two days, vs PBS
Description: Radial arm water maze (RAWM). Mice were tested for two days on 6 radial arm water maze paradigm in a water pool, as described in Alamed et al. (2006). Briefly, mice received Kp-10 injection in the beginning of each day. On the first day, 15 trials were performed, in trials 1, 3, 5, 7, 9 and 11 the platform was visible, and in all other trials the platform was hidden. On the second day, 12 trials were performed, all of them with hidden platform. The time required to reach the platform and the number of errors (incorrect arm entries) in 1-min time period were recorded (FIG. 11A).
One of the cognitive malfunctions in schizophrenia is deficit in spatial learning and memory. To evaluate whether kisspeptine can improve spatial learning and memory, we studied its effect in the radial arm water maze (RAWM), a hippocampal dependent spatial learning and memory assay. In this task, the mouse must find a platform that is located at one of the six maze arms; the time required to reach the platform and the number of errors along the way are recorded (Alamed et al., 2006) (FIG. 11A). Since wild type mice perform well in this test, the ability of Kp-10 to improve their performance is very limited. Therefore we used immune deficient mice (severe combined immunodeficiency; SCID), which have cognitive deficit manifested by poorer performance in the RAWM test. […]

[4] = test system: BDNF; details: hippocampal slices; cited from earlier work

YNWNSFGLRF—NH2 [Kp-10]
duration of the total immobility [1]: shorter
latency to the first immobility [1]: longer
PPI levels [2]: improved the PPI levels
latency time to find the platform [3]: improved
number of errors [3]: reduced
BDNF mRNA levels [4]: elevate BDNF mRNA levels
